Laboratory results from patent US20200253929A1, “TREATMENT OF EPILEPSY” (priority 2017, published 2020).
“Also recorded” adds a separate entry of the source.

Experiments:
[1] = tested on: NMRI mice; assay: Mouse 6-Hz (44 mA) psychomotor seizure model; format: in vivo
From the text: Although the zebrafish model has a high degree of genetic, physiological and pharmacological conservation^13, it is more distinct from humans than mammals. Therefore, we were interested to see if the observed antiseizure properties of azaspirofuran A and pseurotin A2 would translate to a rodent model. The mouse 6-Hz (44 mA) psychomotor seizure model was chosen, because it can detect compounds with novel antiseizure mechanisms and with potential against drug-resistant seizures [Barton et al. (2001) Epilepsy Res 47, 217-227; Wilcox et al. (2013) Epilepsia 54 S4, 24-34]. In this model drug-resistant focal impaired awareness seizures [Fisher et al. (2017) Epilepsia 58, 531-542], previously referred to as complex partial or psychomotor seizures [Holcomb and Dean (2011) Psychomotor Seizures, In Encyclopedia of Child Behavior and Development (Goldstein, S., and Naglieri, J. A., Eds.), pp 1191-1192, Springer US, Boston, Mass.], are induced by low frequency, long duration corneal electrical stimulation (6 Hz, 0.2 ms rectangular pulse width, 3 s duration, 44 mA) and are characterized by stun, twitching of the vibrissae, forelimb clonus, and Straub tail. […] Stimulated mice with a seizure duration shorter than 27 seconds were thus considered to be protected. […] Besides, this study provides another example of the translation of results from zebrafish to rodent seizure models.
Experimental procedure was described in Copmans et al. (2018) Neurochem. Int. 112, 124-133. before Buenafe et al. cited above; Orellana-Paucar cited above. In brief, NMRI mice (average weight 28 g, range 23-32 g) were randomly divided into control and treatment groups (n=5-10). 50 μL (injection volume was adjusted to the individual weight) of VHC (PEG200:DMSO:water; 0.25:0.25:0.5) or treatment (an ASD or test compound dissolved in VHC) was i.p. injected in mice and after 30 or 120 (in case of phenytoin, as reported by Barton et al. cited above) min psychomotor seizures were induced by low frequency, long duration corneal electrical stimulation (6 Hz, 0.2 ms rectangular pulse width, 3 s duration, 44 mA) using an ECT Unit 5780 (Ugo Basile, Comerio, Italy). Mice were manually restrained and a drop of ocular anesthetic (0.5% lidocaine) was applied to the corneas before stimulation. Following electrical current stimulation, the mouse was released in a transparent cage for behavioral observation, which was video-recorded. […] In addition, facial and mouth jerking as well as head nodding were observed occasionally. Mice displaying normal exploratory and locomotion behavior within a time period of 26 seconds were considered to be protected against the induced psychomotor seizures. Seizure durations were measured during the experiment by experienced researchers, familiar with the different seizure behaviors. In addition, seizure durations were determined by blinded video analysis to confirm or correct the initial observations. Data are expressed as mean±SD.

[2] = tested on: PTZ-induced epileptiform brain activity in zebrafish larvae; assay: Zebrafish PTZ seizure model, local field potential recordings (electrophysiology); format: in vivo, Danio rerio; conditions: vs VHC+PTZ
From the text: To determine whether azaspirofuran A and pseurotin A2 can ameliorate the PTZ-induced hyperexcitable state of the brain that is characterized by epileptiform discharges, local field potential (LFP) recordings were non-invasively measured from the midbrain (optic tectum) of zebrafish larvae [Zdebik et al. (2013) PLoS One 8, e79765; Britton et al. (2016) In Electroencephalography (EEG): An Introductory Text and Atlas of Normal and Abnormal Findings in Adults, Children, and Infants (St. Louis and Frey, Eds.), Chicago]. To that end larvae were treated with either VHC or test compound (MTC and optimal incubation time were used) followed by a 15 min during exposure to PTZ or VHC prior to the electrophysiology measurements (FIG. 4). […] Thus, both compounds not only ameliorate PTZ-induced seizures but are likely to do so by lowering the PTZ-induced hyperexcitable state of the brain.
Experimental procedure was described before [Zdebik et al. (2013) PLoS One 8, e79765; Sourbron et al. (2017) Front. Pharmac. 8, 191; Copmans et al. (2018) Neurochem. Int. 112, 124-133.]. Non-invasive LFP recordings were measured from the midbrain (optic tectum) of 7 dpf zebrafish larvae pre-incubated with VHC only, PTZ only, compound and VHC, or compound and PTZ. Larvae were incubated for approximately 2 or 18 hours with VHC (1% DMSO) or compound (1% DMSO) in a 100 μL volume. After incubation, 100 μL of VHC (embryo medium) or 40 mM PTZ (dissolved in embryo medium, 20 mM working concentration) was added to the well for 15 min prior to recording. These steps occurred at 28° C., while further manipulation and electrophysiological recordings occurred at room temperature (21° C.). The larva was embedded in 2% low melting point agarose (Invitrogen) and the signal electrode (an electrode inside a soda-glass pipet (1412227, Hilgenberg) pulled with a DMZ Universal Puller (Zeitz, Germany), diameter±20 microns, containing artificial cerebrospinal fluid (ACSF: 124 mM NaCl, 10 mM glucose, 2 mM KCl, 2 mM MgSO4, 2 mM CaCl2, 1.25 mM KH2PO4, and 26 mM NaHCO3, 300-310 mOsmols)) was positioned on the skin covering the optic tectum. A differential extracellular amplifier (DAGAN, USA) amplified the voltage difference between the signal (measured by the signal electrode) and the reference electrode. The differential signal was band pass filtered at 0.3-300 Hz and digitized at 2 kHz via a PCI-6251 interface (National instruments, UK) using WinEDR (John Dempster, University of Strathclyde, UK). A grounding electrode grounded the electrical system. All electrodes were connected with ACSF. Each recording lasted 600 seconds. Manual analysis was completed by quantification of the number, cumulative duration, and mean duration of epileptiform-like events with Clampfit 10.2 software (Molecular Devices Corporation, USA). An electrical discharge was considered epileptiform if it was a poly-spiking event comprising at least 3 spikes with a minimum amplitude of three times the baseline amplitude and a duration of at least 100 milliseconds. Data are expressed as mean±SD for the number and cumulative duration of epileptiform events and as mean±SEM for the mean duration of events.

[3] = tested on: zebrafish larvae; assay: Zebrafish toxicity evaluation (maximum tolerated concentration); format: in vivo, Danio rerio; conditions: up to 18 hours exposure, 100 μg/mL used where no MTC was reached
Description: (§1) In case no MTC was reached, 100 μg/mL was used as the test concentration. In line with studies previously reported [Baraban et al. (2005) Neurosci 131, 759-768; Afrikanova et al. (2013) PLoS One 8, e54166], addition of the GABAA-receptor antagonist PTZ to the swimming water of 7 days post-fertilization (dpf) zebrafish larvae strongly elevated larval locomotion (p≤0.001) (FIGS. 2 and 3) as a result of induced seizures (or seizure-like behavior) that were recognized as typical high-speed swimming, whirlpool-like circling, clonus-like seizures, and loss of posture, as previously described in Baraban et al cited above.
Maximum tolerated concentration (MTC) was determined prior to further experiments and used as the highest test concentration. MTC was investigated by exposing 12 larvae of 6 days post-fertilization (dpf) to a range of concentrations in a 100 μL volume during 18 hours. The following parameters were investigated after 2 and 18 hours of exposure: touch response, morphology, posture, edema, signs of necrosis, swim bladder, and heartbeat. […] In case MTC was not reached, 100 μg/mL was used as the highest test concentration.

[4] = tested on: PTZ-induced seizures in zebrafish larvae; assay: Zebrafish PTZ seizure model, behavioral analysis; format: in vivo, Danio rerio; conditions: at MTC, 2 or 18 hours incubation (not specified per compound)
Description: To investigate whether the isolated compounds display antiseizure activity, they were tested in the zebrafish PTZ seizure model after both an acute (2 hours) and chronic (18 hours) incubation time at their maximum tolerated concentration (MTC) (Table 1, FIG. 1).
as §1
Experimental procedure was described in Afrikanova et al.(2013) PLoS One 8, e54166 and Orellana-Paucar et al. (2012) Epilepsy Behav 24, 14-22. In brief, a single 7 dpf larva (in case of 2 hours incubation) or 6 dpf larva (in case of 18 hours incubation) was placed in each well of a 96-well plate and treated with either VHC (1% DMSO) or compound (1% DMSO) in a 100 μL volume. Larvae were incubated in dark for 2 or 18 hours at 28° C., whereafter 100 μL of either VHC (embryo medium) or 40 mM PTZ (dissolved in embryo medium, 20 mM working concentration) was added to each well. Next, within 5 min the 96-well plate was placed in an automated tracking device (ZebraBox Viewpoint, France) and larval behavior was video recorded for 30 min. The complete procedure was performed in dark conditions using infrared light. Total locomotor activity was recorded by ZebraLab software (Viewpoint, France) and expressed in actinteg units, which is the sum of pixel changes detected during the defined time interval (5 min). Larval behavior was depicted as mean actinteg units/5 min during the 30 min recording period and over 5 min time intervals. Data are expressed as mean±SD or as mean ±SEM when the means of independent experiments were pooled.

[5] = MTC and optimal incubation time, 10 min recording

Compound | MTC (maximum tolerated concentration) [3] [µg/mL] | PTZ-induced seizures (seizure-like behavior) [4] | further results
CCCC(CCC)C(=O)O [valproate, reference compound] | – | – | mean seizure duration ([1]; 300 mg/kg i.p., 30 min before electrical stimulation): 4 s
CC/C=C\[C@H](O)[C@H](O)C1=C(C)C(=O)[C@]2(O1)C(=O)N[C@@](OC)(C(=O)c1ccccc1)[C@@H]2O [pseurotin A] | 100 | not active | mean duration of epileptiform events ([2]; 100 μg/mL, 18 hours): significantly lower the mean duration; cumulative duration of epileptiform events [2, 5]: non-significantly lower; number of epileptiform events [2, 5]: non-significantly lower
11-O-methylpseurotin A | 100 | less pronounce reduction in PTZ-induced seizures | PTZ-induced seizures (seizure-like behavior) ([4]; listed as 11-Omethylpseurotin A): not active
CC/C=C\C(OC(=O)c1ccccc1N)C(O)C1=C(C)C(=O)C2(O1)C(=O)NC(OC)(C(=O)c1ccccc1)C2O (centres unmarked) [11-anthranilyl-Pseurotin A] | 100 | less pronounce reduction in PTZ-induced seizures | –
CCC(O)C=C[C@H](O)C1=C(C)C(=O)[C@]2(O1)C(=O)N[C@@](OC)(C(=O)c1ccccc1)[C@@H]2O (some centres unmarked) [pseurotin D] | 100 | less pronounce reduction in PTZ-induced seizures; also recorded: not active | –
CC/C=C\[C@H](O)[C@H](O)C1=C(C)C(=O)[C@]2(O1)C(=O)N[C@](O)(C(=O)c1ccccc1)[C@@H]2O [pseurotin F1] | 50 | less pronounce reduction in PTZ-induced seizures | –
CCc1ccc(C2=C(C)C(=O)[C@]3(O2)C(=O)N[C@@](O)(C(=O)c2ccccc2)[C@@H]3O)o1 [azaspirofuran B] | 12.5 | – | –
O=C1NC(=O)C(c2ccccc2)(c2ccccc2)N1 [phenytoin, reference compound] | – | – | response of seizures ([1]; 10 mg/kg i.p., 120 min before electrical stimulation): limited non-significant response
